# Test results: patent US8367666B2 (priority 2004, dated 2013)
# pIC50, pKi: −log10 of the molar value. Counter-ions that a name gives are not always drawn. Like-named read-outs stand apart in the source and are kept apart here.
# Assays:
# [1] = target: T1, CB1 receptor (Homo sapiens, UniProt P21554); test: cAMP formation inhibition experiment through a cannabinoid receptor (forskolin stimulation), CB1; assay type: cell-based; parameters: expressed in transfected cells; host or cells: CHO cells; settings: for IC50: read-out: Agonist activity (nM) CB1
# T1 sequence (P21554 whole entry): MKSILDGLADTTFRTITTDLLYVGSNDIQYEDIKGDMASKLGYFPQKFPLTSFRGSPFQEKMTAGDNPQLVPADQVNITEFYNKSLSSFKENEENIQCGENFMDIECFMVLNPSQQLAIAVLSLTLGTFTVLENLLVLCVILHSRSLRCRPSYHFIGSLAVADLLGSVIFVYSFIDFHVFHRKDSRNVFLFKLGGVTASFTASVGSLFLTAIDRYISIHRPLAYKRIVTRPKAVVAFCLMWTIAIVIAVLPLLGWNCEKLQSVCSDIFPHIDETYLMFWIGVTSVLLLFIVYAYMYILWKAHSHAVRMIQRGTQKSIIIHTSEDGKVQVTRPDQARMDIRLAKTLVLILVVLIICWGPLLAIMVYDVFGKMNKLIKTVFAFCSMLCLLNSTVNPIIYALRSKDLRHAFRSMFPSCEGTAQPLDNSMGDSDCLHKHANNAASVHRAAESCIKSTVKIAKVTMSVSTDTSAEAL
# In short: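 CHO cells expressing human CB1 were pre-incubated with compound for 15 min, then stimulated with forskolin (final 4 μM) for 20 min. The reaction was stopped with 1 M HCl and supernatant cAMP was measured by cAMP kit.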
# [2] = tested on: scratching action induced by Compound 48/80; test: Anti-pruritic activity test by application (Compound 48/80 scratching); assay type: in vivo, mouse (Crj:CD-1 (ICR)); settings: Mus musculus, topical, read-out: Itching inhibition ratio % (Concentration %)
# In short: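 Female CD-1 (ICR) mice, 6–10 weeks, received 50 μL compound in acetone topically on clipped dorsal skin (acetone alone for controls). 15 min later, 3 μg Compound 48/80 injected intradermally at the site; hind-leg scratching counted over 30 min, 5–7 mice per group, means compared by Welch's t-test.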
# [3] = target: T2, CB2 receptor (Homo sapiens, UniProt P34972); test: cAMP formation inhibition experiment through a cannabinoid receptor (forskolin stimulation), CB2; assay type: cell-based; parameters: expressed in transfected cells; host or cells: CHO cells
# T2 sequence (P34972 whole entry): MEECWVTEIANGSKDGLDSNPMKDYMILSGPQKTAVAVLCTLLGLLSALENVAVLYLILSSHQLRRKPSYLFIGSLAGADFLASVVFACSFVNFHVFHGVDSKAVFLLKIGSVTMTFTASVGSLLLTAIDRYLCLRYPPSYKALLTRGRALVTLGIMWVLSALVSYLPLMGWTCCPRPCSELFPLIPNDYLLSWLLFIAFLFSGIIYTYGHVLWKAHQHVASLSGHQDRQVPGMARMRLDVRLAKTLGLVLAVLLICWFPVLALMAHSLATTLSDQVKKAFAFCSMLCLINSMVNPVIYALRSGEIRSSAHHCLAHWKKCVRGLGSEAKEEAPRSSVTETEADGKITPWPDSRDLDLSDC
# Method: After the reaction had been stopped by adding 1M hydrochloric acid, the amount of cAMP in the supernatant was measured with the use of Cyclic AMP kit (made by the CIS Diagnostic Corp.).
# [4] = tested on: respiratory function after cigarette smoke exposure; test: Cigarette smoke exposure, deterioration of guinea pig's breath function (COPD model); assay type: in vivo, Hartley guinea pig; settings: 30 mg/kg a day, oral, Student t-test
# Method: The main current smoke of a cigarette with a filter tip commercially available (Highlight, nicotine 1.4 mg content, and tar 17 mg content, Japan Tabaco Inc.) was exposed to the nose and the mouth of a Hartley guinea pig (obtained from Japan SLC Co., Ltd.) at the rate of 30 pieces of the cigarettes a day for five days a week during 30 days with a cigarette smoke exposure device for an animal (manufactured by […] Co., Ltd.). (Wright J L, Churg A. Cigarette smoke causes physiologic and morphologic changes of emphysema in the guinea pig Am. Rev. Respir. Dis. 1990 142:1422-8). […] After 16 to 24 hours had passed from the final cigarette smoke exposure, the trachea incision of the guinea pig was conducted under urethane ([…], i.p.) anesthesia, and a cannula was intubated and installed in a respiratory function measuring device system, a maneuver (manufactured by Baxco Co., Ltd.) for small animals. The respiratory function of the guinea pig was measured according to the protocol of the maneuver. In the medium administered control group and the medicine administered group, the amount of a functional residual air, the increase in the total lung capacity, and the decrease in the dynamic lung compliance by the cigarette smoke exposure were compared and the test of the significant difference was conducted. The data will be shown by the average±the standard deviation. […]
# [5] = target: T2, CB2 receptor; test: Human cannabinoid receptor bonding inhibition test ([3H]CP55940), CB2; assay type: binding; parameters: expressed in transfected cells; membrane fraction
# [6] = target: T1, CB1 receptor; test: Human cannabinoid receptor bonding inhibition test ([3H]CP55940), CB1; assay type: binding; parameters: expressed in transfected cells; membrane fraction; settings: for Ki: [3H]CP55940 0.5 nM, membrane preparation of CHO cells expressing CB1, Ki calculated from IC50, read-out: Binding activity (nM) CB1
SMILES,melting point,IC50 [1],inhibition in vivo at 3 % [2],pIC50 [3],pKi [5],pKi [6],further results
CCCCn1c(CCC)c(CC)cc(C(=O)NC2CCCCC2C(=O)O)c1=O (centres unmarked),167 to 169 °C,–,–,–,–,–,–
"CC(C)(NC(=O)c1cc2c(n(CC3CCCCC3)c1=O)CCCCCC2)C(=O)NNS(C)(=O)=O [Compound I-052, 1-cyclohexylmethyl-2-oxo-1,2,5,6,7,8,9,10-octahydro-cycloocta[b]pyridine-3-carboxylic acid (1-methylsulfonylhydrazinocarbonyl-1-methyl-ethyl)-amide]",177 to 178 °C,49 nM,80%,8.09,–,–,–
"COC(=O)C(NC(=O)c1cc2c(n(CC=O)c1=O)CCCCCC2)C(C)C (centres unmarked) [(1), methyl 3-methyl-2-{[2-oxo-1-(2-oxo-ethyl)-1,2,5,6,7,8,9,10-octahydro-cycloocta[b]pyridine-3-carbonyl]-amino}-butyrate]",–,–,–,–,–,–,"increase in the amount of a functional residual air by the cigarette smoke exposure, difference to medium group [4]: significant difference of P<0.05; increase in the total lung capacity by the cigarette smoke exposure, difference to medium group [4]: significant difference of P<0.05"
COC(=O)NCCCn1c2c(cc(C(=O)NC(C)(C)C(=O)OC)c1=O)CCCCCC2 (as salt: phosphate),135 to 136 °C,–,–,–,–,–,–
CC(C)(NC(=O)c1cc2c(n(CC3CCCCC3)c1=O)CCCCCC2)C(=O)NN,177 to 180 °C,–,–,–,–,–,–
CC(C)(NC(=O)c1cc2c(n(CCCNS(C)(=O)=O)c1=O)CCCCCC2)C(=O)O,183 to 184 °C,–,–,–,–,–,–
O=C(O)CC(NC(=O)c1cc2c(n(Cc3ccc(F)cc3)c1=O)CCCCCC2)C(F)(F)F (centres unmarked) [II-067],–,–,68%,8.31,7.89,–,pIC50 [1]: 6.16; Ki [6]: > 2000 nM
CCCCNC(=O)C1CCCN(C(=O)C(C)(C)NC(=O)c2cc3c(n(CC4CCCCC4)c2=O)CCCCCC3)C1 (centres unmarked) [Compound I-608],–,> 2000 nM,75%,8.46,7.96,6.28,–
CC(C)(NC(=O)c1cc2c(n(CC3CCCCC3)c1=O)CCCCCC2)C(=O)N1CCC(NS(=O)(=O)C(C)(C)C)CC1 [Compound I-048],–,328 nM,58%,7.77,8.59,6.93,–
CC(C)(NC(=O)c1cc2c(n(CC3CCCCC3)c1=O)CCCCCC2)C(N)=O [Compound I-002],–,11 nM,–,8.36,8.15,7.32,inhibition in vivo at 2.5 % [2]: 68%
CC(C)(C)OC(=O)NC1CCN(C(=O)C(C)(C)NC(=O)c2cc3c(n(CC4CCCCC4)c2=O)CCCCCC3)CC1 [Compound I-570],–,709 nM,84%,7.92,7.96,7.17,–
CCCCC(CC(=O)O)NC(=O)c1cc2c(n(CC3CCCCC3)c1=O)CCCCCC2 (centres unmarked) [Compound X-67],–,–,–,7.40,7.02,–,pIC50 [1]: < 5.70; Ki [6]: > 2000 nM; inhibition in vivo at 1 % [2]: 79%
CN1CCN(C(=O)C(C)(C)NC(=O)c2cc3c(n(CC4CCCCC4)c2=O)CCCCCC3)CC1,183 to 184 °C,–,–,–,–,–,–
